Measured values: patent publication US11231421B2, “Methods of treating multifocal cancer” (NYMOX CORPORATION, priority 2019, dated 2022)
Where no end group is shown, it is not given here.

Legend:
Type in all cases: in vivo, human
[1] = system: low grade prostate cancer (Gleason grade 6); assay: Clinical study, Example 2: new multifocal with increase Gleason primary pattern in entire prostate; conditions: for % Imp.: new multifocal with increase Gleason primary pattern, entire prostate: vs control active surveillance
Description: (§1) In a series of clinical studies a total of 146 men with low grade prostate cancer (Gleason grade 6) were treated in the following manner. Patients were randomized and treated with a transrectal intraprostatic single injection of a composition comprising 2.5 mg FT (n=49), or a composition comprising 15 mg FT (n=48), or were subject to control active surveillance (n=49). After the first follow-up biopsy at 45 days post-randomization, 18 patients in the control active surveillance group crossed over to a single administration of a composition in which 10 patients received 2.5 mg FT, and 8 patients received 15 mg FT. Patients were followed for 5 years including biopsies at baseline, 45 days, 18, 36, and 48 months, and urological evaluations with PSA every 6 months. Patients with Gleason grade increase or who elected surgical or radiotherapeutic intervention exited the study and were still included in the data analysis. Percentage of normal biopsies in the baseline focus quadrant and median tumor grade and volume were assessed; progression was measured by clinical and pathological outcomes including Gleason grade, and Gleason grade primary pattern, in the entire prostate sampled as well as for the treated prostate lobe. Interventions associated with Gleason grade increase as well as total incidence for any conventional surgical intervention (e.g., surgery, radiotherapy, and/or chemotherapy) was assessed.

[2] = system: low grade prostate cancer (Gleason grade 6); assay: Clinical study, Example 5: cancer treatment with new multifocal with Gleason upgrade; conditions: for % Imp.: cancer treatment with new multifocal with Gleason upgrade, entire prostate: vs control active surveillance
Description: as §1

[3] = system: low grade prostate cancer (Gleason grade 6); assay: Clinical study, Example 6: cancer treatment with new multifocal and an increase in Gleason grade primary pattern; conditions: for % Imp.: cancer treatment with new multifocal and an increase in Gleason grade primary pattern, entire prostate: vs control active surveillance
Description: as §1

[4] = system: low grade prostate cancer (Gleason grade 6); assay: Clinical study, Example 8: cancer treatment with new multifocal and an increase in Gleason grade primary pattern in the hemi-prostate; conditions: for % Imp.: cancer treatment with new multifocal and an increase in Gleason grade primary pattern in the hemi-prostate: vs control active surveillance
Description: as §1, with “assessed. This example evaluated the percentage of patients having conventional cancer treatment (surgery, radiotherapy, or chemotherapy), and having multifocal prostate cancer in the lobe (or hemi-prostate) in which the foci were initially treated with Gleason primary pattern (cancer treatment with new multifocal and an increase in Gleason grade primary pattern in the hemi-prostate).” for “assessed.”

[5] = FT 2.5 mg, <=18 mos from treatment
[6] = FT 2.5 mg, <=36 mos from treatment
[7] = FT 2.5 mg, <=48 mos from treatment
[8] = FT 15 mg, <=18 mos from treatment
[9] = FT 15 mg, <=36 mos from treatment
[10] = FT 15 mg, <=48 mos from treatment
[11] = Pooled FT (2.5 mg and 15 mg), <=18 mos from treatment
[12] = Pooled FT (2.5 mg and 15 mg), <=18 mos
[13] = Pooled FT (2.5 mg and 15 mg), <=36 mos from treatment
[14] = Pooled FT (2.5 mg and 15 mg), <=36 mos
[15] = Pooled FT (2.5 mg and 15 mg), <=48 mos from treatment
[16] = Pooled FT (2.5 mg and 15 mg), <=48 mos

fexapotide triflutate (IDQQVLSRIKLEIKRCL; also: trifluoroacetate salt) [FT]
percentage of patients: new multifocal with increase Gleason primary pattern, entire prostate [1, 5]: 0 (p = 0.17) % | % Imp.: new multifocal with increase Gleason primary pattern, entire prostate ([1]; FT 2.5 mg, <=18 mos): 100% | percentage of patients: new multifocal with increase Gleason primary pattern, entire prostate [1, 6]: 0 (p = 0.074) % | % Imp.: new multifocal with increase Gleason primary pattern, entire prostate ([1]; FT 2.5 mg, <=36 mos): 100% | percentage of patients: new multifocal with increase Gleason primary pattern, entire prostate [1, 7]: 0 (p = 0.009) % | % Imp.: new multifocal with increase Gleason primary pattern, entire prostate ([1]; FT 2.5 mg, <=48 mos): 100% | percentage of patients: new multifocal with increase Gleason primary pattern, entire prostate [1, 8]: 2.9% | % Imp.: new multifocal with increase Gleason primary pattern, entire prostate ([1]; FT 15 mg, <=18 mos): 82.6% | percentage of patients: new multifocal with increase Gleason primary pattern, entire prostate [1, 9]: 4.5% | % Imp.: new multifocal with increase Gleason primary pattern, entire prostate ([1]; FT 15 mg, <=36 mos): 82% | percentage of patients: new multifocal with increase Gleason primary pattern, entire prostate [1, 10]: 13.3% | % Imp.: new multifocal with increase Gleason primary pattern, entire prostate ([1]; FT 15 mg, <=48 mos): 62.7% | percentage of patients: new multifocal with increase Gleason primary pattern, entire prostate [1, 11]: 1.4 (p = 0.049) % | % Imp.: new multifocal with increase Gleason primary pattern, entire prostate [1, 12]: 91.6% | percentage of patients: new multifocal with increase Gleason primary pattern, entire prostate [1, 13]: 2.1 (p = 0.0031) % | % Imp.: new multifocal with increase Gleason primary pattern, entire prostate [1, 14]: 91.6% | percentage of patients: new multifocal with increase Gleason primary pattern, entire prostate [1, 15]: 6.5 (p = 0.012) % | % Imp.: new multifocal with increase Gleason primary pattern, entire prostate [1, 16]: 81.8% | percentage of patients: cancer treatment with new multifocal with Gleason upgrade, entire prostate [2, 5]: 9.8% | % Imp.: cancer treatment with new multifocal with Gleason upgrade, entire prostate ([2]; FT 2.5 mg, <=18 mos): 62.7% | percentage of patients: cancer treatment with new multifocal with Gleason upgrade, entire prostate [2, 6]: 16.7% | % Imp.: cancer treatment with new multifocal with Gleason upgrade, entire prostate ([2]; FT 2.5 mg, <=36 mos): 52.7% | percentage of patients: cancer treatment with new multifocal with Gleason upgrade, entire prostate [2, 7]: 26% | % Imp.: cancer treatment with new multifocal with Gleason upgrade, entire prostate ([2]; FT 2.5 mg, <=48 mos): 48% | percentage of patients: cancer treatment with new multifocal with Gleason upgrade, entire prostate [2, 8]: 5.1 (p = 0.02) % | % Imp.: cancer treatment with new multifocal with Gleason upgrade, entire prostate ([2]; FT 15 mg, <=18 mos): 80.6% | percentage of patients: cancer treatment with new multifocal with Gleason upgrade, entire prostate [2, 9]: 7.1 (p = 0.17) % | % Imp.: cancer treatment with new multifocal with Gleason upgrade, entire prostate ([2]; FT 15 mg, <=36 mos): 79.9% | percentage of patients: cancer treatment with new multifocal with Gleason upgrade, entire prostate [2, 10]: 8.3 (p = 0.003) % | % Imp.: cancer treatment with new multifocal with Gleason upgrade, entire prostate ([2]; FT 15 mg, <=48 mos): 83.4% | percentage of patients: cancer treatment with new multifocal with Gleason upgrade, entire prostate [2, 11]: 7.5 (p = 0.02) % | % Imp.: cancer treatment with new multifocal with Gleason upgrade, entire prostate [2, 12]: 71.5% | percentage of patients: cancer treatment with new multifocal with Gleason upgrade, entire prostate [2, 13]: 12.1 (p = 0.026) % | % Imp.: cancer treatment with new multifocal with Gleason upgrade, entire prostate [2, 14]: 65.7% | percentage of patients: cancer treatment with new multifocal with Gleason upgrade, entire prostate [2, 15]: 17 (p = 0.009) % | % Imp.: cancer treatment with new multifocal with Gleason upgrade, entire prostate [2, 16]: 66% | percentage of patients: cancer treatment with new multifocal and an increase in Gleason grade primary pattern, entire prostate [3, 5]: 0 (p = 0.001) % | % Imp.: cancer treatment with new multifocal and an increase in Gleason grade primary pattern, entire prostate ([3]; FT 2.5 mg, <=18 mos): 100% | percentage of patients: cancer treatment with new multifocal and an increase in Gleason grade primary pattern, entire prostate [3, 6]: 0 (p = 0.006) % | % Imp.: cancer treatment with new multifocal and an increase in Gleason grade primary pattern, entire prostate ([3]; FT 2.5 mg, <=36 mos): 100% | percentage of patients: cancer treatment with new multifocal and an increase in Gleason grade primary pattern, entire prostate [3, 7]: 0 (p = 0.0040) % | % Imp.: cancer treatment with new multifocal and an increase in Gleason grade primary pattern, entire prostate ([3]; FT 2.5 mg, <=48 mos): 100% | percentage of patients: cancer treatment with new multifocal and an increase in Gleason grade primary pattern, entire prostate [3, 8]: 2.6 (p = 0.06) % | % Imp.: cancer treatment with new multifocal and an increase in Gleason grade primary pattern, entire prostate ([3]; FT 15 mg, <=18 mos): 83.5% | percentage of patients: cancer treatment with new multifocal and an increase in Gleason grade primary pattern, entire prostate [3, 9]: 3.6 (p = 0.04) % | % Imp.: cancer treatment with new multifocal and an increase in Gleason grade primary pattern, entire prostate ([3]; FT 15 mg, <=36 mos): 84.7% | percentage of patients: cancer treatment with new multifocal and an increase in Gleason grade primary pattern, entire prostate [3, 10]: 4.2 (p = 0.019) % | % Imp.: cancer treatment with new multifocal and an increase in Gleason grade primary pattern, entire prostate ([3]; FT 15 mg, <=48 mos): 86.6% | percentage of patients: cancer treatment with new multifocal and an increase in Gleason grade primary pattern, entire prostate [3, 11]: 1.3 (p = 0.04) % | % Imp.: cancer treatment with new multifocal and an increase in Gleason grade primary pattern, entire prostate [3, 12]: 91.8% | percentage of patients: cancer treatment with new multifocal and an increase in Gleason grade primary pattern, entire prostate [3, 13]: 1.7 (p = 0.002) % | % Imp.: cancer treatment with new multifocal and an increase in Gleason grade primary pattern, entire prostate [3, 14]: 92.8% | percentage of patients: cancer treatment with new multifocal and an increase in Gleason grade primary pattern, entire prostate [3, 15]: 2.1 (p = 0.001) % | % Imp.: cancer treatment with new multifocal and an increase in Gleason grade primary pattern, entire prostate [3, 16]: 93.3% | percentage of patients: cancer treatment with new multifocal and an increase in Gleason grade primary pattern in the hemi-prostate [4, 5]: 0 (p = 0.025) % | % Imp.: cancer treatment with new multifocal and an increase in Gleason grade primary pattern in the hemi-prostate ([4]; FT 2.5 mg, <=18 mos): 100% | percentage of patients: cancer treatment with new multifocal and an increase in Gleason grade primary pattern in the hemi-prostate [4, 6]: 0 (p = 0.017) % | % Imp.: cancer treatment with new multifocal and an increase in Gleason grade primary pattern in the hemi-prostate ([4]; FT 2.5 mg, <=36 mos): 100% | percentage of patients: cancer treatment with new multifocal and an increase in Gleason grade primary pattern in the hemi-prostate [4, 7]: 0 (p = 0.031) % | % Imp.: cancer treatment with new multifocal and an increase in Gleason grade primary pattern in the hemi-prostate ([4]; FT 2.5 mg, <=48 mos): 100% | percentage of patients: cancer treatment with new multifocal and an increase in Gleason grade primary pattern in the hemi-prostate [4, 8]: 2.6% | % Imp.: cancer treatment with new multifocal and an increase in Gleason grade primary pattern in the hemi-prostate ([4]; FT 15 mg, <=18 mos): 75.2% | percentage of patients: cancer treatment with new multifocal and an increase in Gleason grade primary pattern in the hemi-prostate [4, 9]: 3.6% | % Imp.: cancer treatment with new multifocal and an increase in Gleason grade primary pattern in the hemi-prostate ([4]; FT 15 mg, <=36 mos): 79.5% | percentage of patients: cancer treatment with new multifocal and an increase in Gleason grade primary pattern in the hemi-prostate [4, 10]: 4.2% | % Imp.: cancer treatment with new multifocal and an increase in Gleason grade primary pattern in the hemi-prostate ([4]; FT 15 mg, <=48 mos): 77.7% | percentage of patients: cancer treatment with new multifocal and an increase in Gleason grade primary pattern in the hemi-prostate [4, 11]: 1.3 (p = 0.034) % | % Imp.: cancer treatment with new multifocal and an increase in Gleason grade primary pattern in the hemi-prostate [4, 12]: 87.6% | percentage of patients: cancer treatment with new multifocal and an increase in Gleason grade primary pattern in the hemi-prostate [4, 13]: 1.7 (p = 0.01) % | % Imp.: cancer treatment with new multifocal and an increase in Gleason grade primary pattern in the hemi-prostate [4, 14]: 90.3% | percentage of patients: cancer treatment with new multifocal and an increase in Gleason grade primary pattern in the hemi-prostate [4, 15]: 2.1 (p = 0.019) % | % Imp.: cancer treatment with new multifocal and an increase in Gleason grade primary pattern in the hemi-prostate [4, 16]: 88.8%
